Measured values as given in patent publication US12209087B2, “AKT1 modulators” (Alterome Therapeutics, Inc., priority 2022, dated 2025).
pIC50: −log10 of the molar value.

Biological target: T1, full length AKT E17K (Homo sapiens, UniProt P31749, E17K)
T1 construct: host or cells: HEK-293 (ATCC CRL-1573)
Assay: NanoBRET Target Engagement (TE) Assay
Format: cell-based
Settings: competitive displacement of tracer in cells, read-out: AKT1 E17K IC50
Procedure, shortened: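 Compound and tracer incubated 2 h before luminescence at donor 450 nm and acceptor 600 nm, with extracellular signal inhibited. EC50 by sigmoidal variable-slope regression.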

T1 sequence (P31749 whole entry E17K): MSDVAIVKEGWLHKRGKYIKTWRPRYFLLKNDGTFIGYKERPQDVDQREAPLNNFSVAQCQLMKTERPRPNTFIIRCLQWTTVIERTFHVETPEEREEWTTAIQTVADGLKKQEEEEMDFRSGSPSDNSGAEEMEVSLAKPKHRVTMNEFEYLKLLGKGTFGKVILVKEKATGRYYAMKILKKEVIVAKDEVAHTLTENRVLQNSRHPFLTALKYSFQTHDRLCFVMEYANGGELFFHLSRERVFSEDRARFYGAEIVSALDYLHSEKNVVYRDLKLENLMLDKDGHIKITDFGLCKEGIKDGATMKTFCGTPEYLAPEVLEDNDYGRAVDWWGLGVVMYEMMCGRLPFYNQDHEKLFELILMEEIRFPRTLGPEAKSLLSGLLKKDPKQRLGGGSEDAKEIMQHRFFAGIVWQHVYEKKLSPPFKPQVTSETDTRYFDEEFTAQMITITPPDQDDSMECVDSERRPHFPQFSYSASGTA

N#Cc1nccc(N2CCN(Cc3ccc(-n4c(-c5cccnc5N)nc5ccc(-c6ccc(=O)[nH]c6)nc54)cc3)CC2)n1 [Example 332, 4-(4-(4-(2-(2-Aminopyridin-3-yl)-5-(6-oxo-1,6-dihydropyridin-3-yl)-3H-imidazo[4,5-b]pyridin-3-yl)benzyl)piperazin-1-yl)pyrimidine-2-carbonitrile]
pIC50: 5.00 to 6.22

N#Cc1ccnc(N2CCN(Cc3ccc(-n4c(-c5cccnc5N)nc5ccc(-c6cccc(=O)[nH]6)nc54)cc3)CC2)n1 [Example 333, 2-(4-(4-(2-(2-Aminopyridin-3-yl)-5-(6-oxo-1,6-dihydropyridin-2-yl)-3H-imidazo[4,5-b]pyridin-3-yl)benzyl)piperazin-1-yl)pyrimidine-4-carbonitrile]
pIC50: 7.22 to 7.82

N#Cc1cc(N2CCN(Cc3ccc(-n4c(-c5cccnc5N)nc5ccc(-c6cccc(=O)[nH]6)nc54)cc3)CC2)ncn1 [Example 334, 6-(4-(4-(2-(2-Aminopyridin-3-yl)-5-(6-oxo-1,6-dihydropyridin-2-yl)-3H-imidazo[4,5-b]pyridin-3-yl)benzyl)piperazin-1-yl)pyrimidine-4-carbonitrile]
pIC50: 7.22 to 7.82

N#Cc1nccc(NC2CCN(Cc3ccc(-n4c(-c5cccnc5N)nc5ccc(-c6ccccc6C#N)nc54)cc3)CC2)n1 [Example 335, 4-((1-(4-(2-(2-Aminopyridin-3-yl)-5-(2-cyanophenyl)-3H-imidazo[4,5-b]pyridin-3-yl)benzyl)piperidin-4-yl)amino)pyrimidine-2-carbonitrile]
pIC50: > 7.82

CN(C(=O)c1ccnc(C#N)n1)C1CCN(Cc2ccc(-n3c(-c4cccnc4N)nc4ccc(-c5ccccc5)nc43)cc2)CC1 [Example 336, N-(1-(4-(2-(2-aminopyridin-3-yl)-5-phenyl-3H-imidazo[4,5-b]pyridin-3-yl)benzyl)piperidin-4-yl)-2-cyano-N-methylpyrimidine-4-carboxamide]
pIC50: > 7.82

N#Cc1ncnc(N[C@@H]2CCCN(Cc3ccc(-n4c(-c5cccnc5N)nc5ccc(-c6ccccc6)nc54)cc3)C2)n1 [Example 337, (R)-4-((1-(4-(2-(2-Aminopyridin-3-yl)-5-phenyl-3H-imidazo[4,5-b]pyridin-3-yl)benzyl)piperidin-3-yl)amino)-1,3,5-triazine-2-carbonitrile]
pIC50: > 7.82

N#Cc1ncnc(N2C[C@@H]3C[C@H]2CN3Cc2ccc(-n3c(-c4cccnc4N)nc4ccc(-c5ccccc5)nc43)cc2)n1 [Example 338, 4-((1S,4S)-5-(4-(2-(2-Aminopyridin-3-yl)-5-phenyl-3H-imidazo[4,5-b]pyridin-3-yl)benzyl)-2,5-diazabicyclo[2.2.1]heptan-2-yl)-1,3,5-triazine-2-carbonitrile]
pIC50: 7.22 to 7.82

N#Cc1nccc(N2C[C@H]3CN(Cc4ccc(-n5c(-c6cccnc6N)nc6ccc(-c7ccccc7)nc65)cc4)C[C@H]3C2)n1 [Example 339, 4-((3aR,6aS)-5-(4-(2-(2-aminopyridin-3-yl)-5-phenyl-3H-imidazo[4,5-b]pyridin-3-yl)benzyl)hexahydropyrrolo[3,4-c]pyrrol-2(1H)-yl)pyrimidine-2-carbonitrile]
pIC50: 7.22 to 7.82

N#Cc1ncnc(N2C[C@H]3CN(Cc4ccc(-n5c(-c6cccnc6N)nc6ccc(-c7ccccc7)nc65)cc4)C[C@H]3C2)n1 [Example 340, 4-((3aR,6aS)-5-(4-(2-(2-Aminopyridin-3-yl)-5-phenyl-3H-imidazo[4,5-b]pyridin-3-yl)benzyl)hexahydropyrrolo[3,4-c]pyrrol-2(1H)-yl)-1,3,5-triazine-2-carbonitrile]
pIC50: > 7.82

N#Cc1nccc(N2C[C@H]3CN(Cc4ccc(-n5c(-c6cccnc6N)nc6ccc(-c7ccccc7)nc65)cc4)C[C@@H]3C2)n1 [Example 341, 4-((3aR,6aR)-5-(4-(2-(2-aminopyridin-3-yl)-5-phenyl-3H-imidazo[4,5-b]pyridin-3-yl)benzyl)hexahydropyrrolo[3,4-c]pyrrol-2(1H)-yl)pyrimidine-2-carbonitrile]
pIC50: > 7.82

N#Cc1nccc(N2CCN(Cc3ccc(-n4c(-c5cccnc5N)nc5ccc(-c6ccc(Cl)cc6)nc54)cc3)CC2)n1 [Example 342, 4-(4-(4-(2-(2-Aminopyridin-3-yl)-5-(4-chlorophenyl)-3H-imidazo[4,5-b]pyridin-3-yl)benzyl)piperazin-1-yl)pyrimidine-2-carbonitrile]
pIC50: 7.22 to 7.82

N#Cc1ccnc(N2CCN(Cc3ccc(-n4c(-c5cccnc5N)nc5ccc(-c6ccc(Cl)cc6)nc54)cc3)CC2)n1 [Example 343, 2-(4-(4-(2-(2-Aminopyridin-3-yl)-5-(4-chlorophenyl)-3H-imidazo[4,5-b]pyridin-3-yl)benzyl)piperazin-1-yl)pyrimidine-4-carbonitrile]
pIC50: 6.22 to 7.22

N#Cc1cc(N2CCN(Cc3ccc(-n4c(-c5cccnc5N)nc5ccc(-c6ccc(Cl)cc6)nc54)cc3)CC2)ncn1 [Example 344, 6-(4-(4-(2-(2-Aminopyridin-3-yl)-5-(4-chlorophenyl)-3H-imidazo[4,5-b]pyridin-3-yl)benzyl)piperazin-1-yl)pyrimidine-4-carbonitrile]
pIC50: 6.22 to 7.22

CN1CCN(c2ccc3nc(-c4cccnc4N)n(-c4ccc(CN5CCN(c6ccnc(C#N)n6)CC5)cc4)c3n2)CCC1=O [Example 345, 4-(4-(4-(2-(2-Aminopyridin-3-yl)-5-(4-methyl-5-oxo-1,4-diazepan-1-yl)-3H-imidazo[4,5-b]pyridin-3-yl)benzyl)piperazin-1-yl)pyrimidine-2-carbonitrile]
pIC50: 6.22 to 7.22

CN1CCN(c2ccc3nc(-c4cccnc4N)n(-c4ccc(CN5CCC(Nc6ccnc(C#N)n6)CC5)cc4)c3n2)CCC1=O [Example 346, 4-((1-(4-(2-(2-Aminopyridin-3-yl)-5-(4-methyl-5-oxo-1,4-diazepan-1-yl)-3H-imidazo[4,5-b]pyridin-3-yl)benzyl)piperidin-4-yl)amino)pyrimidine-2-carbonitrile]
pIC50: 6.22 to 7.22

N#Cc1ccnc(NC2CCN(Cc3ccc(-n4c(-c5cccnc5N)nc5ccc(N6CCCNC(=O)C6)nc54)cc3)CC2)n1 [Example 347, 2-((1-(4-(2-(2-Aminopyridin-3-yl)-5-(3-oxo-1,4-diazepan-1-yl)-3H-imidazo[4,5-b]pyridin-3-yl)benzyl)piperidin-4-yl)amino)pyrimidine-4-carbonitrile]
pIC50: 6.22 to 7.22

Cn1cc(-c2ccc3nc(-c4cccnc4N)n(-c4ccc(CN5CCN(c6ccnc(C#N)n6)CC5)cc4)c3n2)ccc1=O [Example 348, 4-(4-(4-(2-(2-Aminopyridin-3-yl)-5-(1-methyl-6-oxo-1,6-dihydropyridin-3-yl)-3H-imidazo[4,5-b]pyridin-3-yl)benzyl)piperazin-1-yl)pyrimidine-2-carbonitrile]
pIC50: 6.22 to 7.22

Cn1ccc(-c2ccc3nc(-c4cccnc4N)n(-c4ccc(CN5CCN(c6ccnc(C#N)n6)CC5)cc4)c3n2)cc1=O [Example 349, 4-(4-(4-(2-(2-Aminopyridin-3-yl)-5-(1-methyl-2-oxo-1,2-dihydropyridin-4-yl)-3H-imidazo[4,5-b]pyridin-3-yl)benzyl)piperazin-1-yl)pyrimidine-2-carbonitrile]
pIC50: 7.22 to 7.82

N#Cc1ccnc(N2CCN(Cc3ccc(-n4c(-c5cccnc5N)nc5ccc(C6CC6)nc54)cc3)CC2)n1 [Example 350, 2-(4-(4-(2-(2-Aminopyridin-3-yl)-5-cyclopropyl-3H-imidazo[4,5-b]pyridin-3-yl)benzyl)piperazin-1-yl)pyrimidine-4-carbonitrile]
pIC50: 7.22 to 7.82
